Data: PubChem BioAssay (NCI)
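Values below derive from 48-hour exposures of cells grown in 96-well plates, with endpoints linearly interpolated between the two concentrations bracketing the appropriate inhibition level. TGI denotes the concentration required for complete inhibition of growth.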

Experiments:
Assay in all cases: NCI anticancer screen, dose series, 48 h
[1] = system: NCI-H23 lung
[2] = system: MOLT-4 leukemia
[3] = system: HL-60(TB) leukemia
[4] = system: CCRF-CEM leukemia
[5] = system: A549 NSCLC
[6] = system: MDA-MB-231 breast
[7] = system: SF-295 CNS
[8] = system: HS 578T breast
[9] = system: SN12C renal
[10] = system: A498 renal
[11] = system: MCF7 breast
[12] = system: M14 melanoma
[13] = system: SK-OV-3 ovarian
[14] = system: SK-MEL-28 melanoma
[15] = system: NCI-H226 lung
[16] = system: RXF 393 renal
[17] = system: SNB-19 CNS
[18] = system: NCI/ADR-RES ovarian
[19] = system: UACC-257 melanoma
[20] = system: BT-549 breast
[21] = system: UO-31 renal
[22] = system: CAKI-1 renal
[23] = system: OVCAR-4 ovarian
[24] = system: UACC-62 melanoma
[25] = system: KM12 colon
[26] = system: 786-0 renal
[27] = system: K-562 leukemia
[28] = system: HOP-92 NSCLC
[29] = system: EKVX NSCLC
[30] = system: OVCAR-8 ovarian
[31] = system: ACHN renal
[32] = system: SR leukemia
[33] = system: SF-268 CNS
[34] = system: SK-MEL-2 melanoma
[35] = system: RPMI-8226 leukemia
[36] = system: NCI-H522 lung
[37] = system: U251 CNS
[38] = system: NCI-H460 lung
[39] = system: LOX IMVI melanoma
[40] = system: MDA-N
[41] = system: COLO 205 colon
[42] = system: HCT-116 colon
[43] = system: DU-145 prostate
[44] = system: HT29 colon
[45] = system: OVCAR-5 ovarian
[46] = system: SNB-75 CNS
[47] = system: HCC-2998 colon
[48] = system: HCT-15 colon
[49] = system: MDA-MB-435
[50] = system: T-47D breast
[51] = system: OVCAR-3 ovarian
[52] = system: SW-620 colon
[53] = system: SK-MEL-5 melanoma
[54] = system: SF-539 CNS
[55] = system: TK-10 renal
[56] = system: IGROV1 ovarian
[57] = system: MALME-3M melanoma
[58] = system: PC-3 prostate
[59] = system: HOP-62 NSCLC

**Q.** Which results are given for `Cc1ccccc1C(=O)N/N=C/c1ccc(Sc2nccn2C)c([N+](=O)[O-])c1`?
**A.** TGI [1]: > 100 µM; TGI [2]: > 100 µM; TGI [3]: > 100 µM; TGI [4]: > 100 µM; TGI [5]: > 100 µM; TGI [6]: > 100 µM; TGI [7]: > 100 µM; TGI [8]: > 100 µM; TGI [9]: > 100 µM; TGI [10]: > 100 µM; TGI [11]: > 100 µM; TGI [12]: > 100 µM; TGI [13]: > 100 µM; TGI [14]: > 100 µM; TGI [15]: > 100 µM; TGI [16]: > 100 µM; TGI [17]: > 100 µM; TGI [18]: > 100 µM; TGI [19]: > 100 µM; TGI [20]: > 100 µM; TGI [21]: > 100 µM; TGI [22]: > 100 µM; TGI [23]: > 100 µM; TGI [24]: > 100 µM; TGI [25]: > 100 µM; TGI [26]: > 100 µM; TGI [27]: > 100 µM; TGI [28]: 88.2 µM; TGI [29]: > 100 µM; TGI [30]: > 100 µM; TGI [31]: > 100 µM; TGI [32]: > 100 µM; TGI [33]: > 100 µM; TGI [34]: > 100 µM; TGI [35]: > 100 µM; TGI [36]: > 100 µM; TGI [37]: > 100 µM; TGI [38]: > 100 µM; TGI [39]: > 100 µM; TGI [40]: > 100 µM; TGI [41]: > 100 µM; TGI [42]: > 100 µM; TGI [43]: > 100 µM; TGI [44]: > 100 µM; TGI [45]: > 100 µM; TGI [46]: > 100 µM; TGI [47]: > 100 µM; TGI [48]: > 100 µM; TGI [49]: 81.1 µM; TGI [50]: > 100 µM; TGI [51]: > 100 µM; TGI [52]: > 100 µM; TGI [53]: > 100 µM; TGI [54]: > 100 µM; TGI [55]: > 100 µM; TGI [56]: > 100 µM; TGI [57]: > 100 µM; TGI [58]: > 100 µM; TGI [59]: > 100 µM

**Q.** What does the source list for `O=S(=O)(O)C(=Nc1cccc(Cc2ccccc2)c1)Nc1cccc(Cc2ccccc2)c1`?
**A.** TGI [1]: 31.9 µM; TGI [2]: 83.4 µM; TGI [3]: 95.7 µM; TGI [4]: 98 µM; TGI [5]: 51.9 µM; TGI [6]: 38.2 µM; TGI [7]: 34.3 µM; TGI [8]: 45.5 µM; TGI [9]: 37.2 µM; TGI [10]: 45.8 µM; TGI [11]: 37.9 µM; TGI [12]: 31.8 µM; TGI [13]: 36.9 µM; TGI [14]: 38.8 µM; TGI [15]: 33.7 µM; TGI [16]: 33.3 µM; TGI [17]: 48.5 µM; TGI [18]: 35.2 µM; TGI [19]: 48.7 µM; TGI [20]: 33.4 µM; TGI [21]: 29.5 µM; TGI [22]: > 100 µM; TGI [23]: 41 µM; TGI [24]: 30.9 µM; TGI [25]: 31.5 µM; TGI [26]: 29 µM; TGI [27]: > 100 µM; TGI [28]: 28.6 µM; TGI [29]: 30.9 µM; TGI [30]: 36.2 µM; TGI [31]: 38.7 µM; TGI [32]: 69.7 µM; TGI [33]: 33.6 µM; TGI [34]: 44.6 µM; TGI [35]: 83.1 µM; TGI [36]: 29.4 µM; TGI [37]: 37.8 µM; TGI [39]: 26.6 µM; TGI [40]: 47.2 µM; TGI [41]: 34.3 µM; TGI [42]: 28.2 µM; TGI [43]: 35.4 µM; TGI [44]: 34.5 µM; TGI [45]: 33.7 µM; TGI [46]: 30.6 µM; TGI [47]: 35.5 µM; TGI [48]: 35.2 µM; TGI [49]: 40.6 µM; TGI [50]: 32.1 µM; TGI [52]: 52.1 µM; TGI [53]: 32.4 µM; TGI [54]: 34.7 µM; TGI [55]: 35.6 µM; TGI [56]: 31.3 µM; TGI [57]: 32.6 µM; TGI [58]: 35.1 µM; TGI [59]: > 100 µM
